Tests used:
FSHR = target: T1, FSHR (Homo sapiens, UniProt P23945); assay: EC50 of cyclic AMP production in CHO FSHR cells + EC20 FSH (Assay A); assay type: cell-based; conditions: cyclic AMP production in CHO FSHR cells + EC20 FSH (0.265 pM), HTRF
T1 construct: expressed in transfected cells; host or cells: CHO (Cho-FSHR-LUC-1-1-43)
T1 sequence (P23945 18-695): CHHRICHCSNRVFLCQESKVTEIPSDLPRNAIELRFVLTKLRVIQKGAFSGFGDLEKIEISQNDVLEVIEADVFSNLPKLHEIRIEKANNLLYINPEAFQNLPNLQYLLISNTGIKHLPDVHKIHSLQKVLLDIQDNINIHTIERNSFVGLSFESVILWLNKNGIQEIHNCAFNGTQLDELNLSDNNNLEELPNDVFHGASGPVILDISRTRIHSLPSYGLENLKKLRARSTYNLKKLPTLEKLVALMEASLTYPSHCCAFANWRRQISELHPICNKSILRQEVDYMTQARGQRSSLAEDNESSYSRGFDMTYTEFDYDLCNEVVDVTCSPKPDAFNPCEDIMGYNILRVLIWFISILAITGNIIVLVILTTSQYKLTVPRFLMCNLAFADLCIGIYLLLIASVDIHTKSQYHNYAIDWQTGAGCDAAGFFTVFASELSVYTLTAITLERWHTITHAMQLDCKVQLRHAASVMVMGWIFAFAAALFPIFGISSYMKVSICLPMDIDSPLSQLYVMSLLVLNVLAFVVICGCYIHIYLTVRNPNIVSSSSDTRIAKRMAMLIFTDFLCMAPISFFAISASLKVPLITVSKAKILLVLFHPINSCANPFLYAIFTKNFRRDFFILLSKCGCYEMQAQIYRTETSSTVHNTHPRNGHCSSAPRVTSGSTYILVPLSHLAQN
Procedure, shortened: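 CHO cells expressing FSHR, stimulated 1 h at 37° C with compound plus EC20 FSH (0.265 pM final) and 200 μM IBMX. cAMP measured by HTRF (665/620 nm ratio) after 1 h at room temperature; effect expressed relative to maximum response of FSH standard.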

[1] = target: T2, follicle-stimulating hormone (FSH) receptor (Rattus norvegicus, UniProt P20395); assay: Rat granulosa EC50 FSH (Assay B); assay type: cell-based
T2 construct: endogenous in cells; host or cells: rat granulosa cells
T2 sequence (P20395 18-692): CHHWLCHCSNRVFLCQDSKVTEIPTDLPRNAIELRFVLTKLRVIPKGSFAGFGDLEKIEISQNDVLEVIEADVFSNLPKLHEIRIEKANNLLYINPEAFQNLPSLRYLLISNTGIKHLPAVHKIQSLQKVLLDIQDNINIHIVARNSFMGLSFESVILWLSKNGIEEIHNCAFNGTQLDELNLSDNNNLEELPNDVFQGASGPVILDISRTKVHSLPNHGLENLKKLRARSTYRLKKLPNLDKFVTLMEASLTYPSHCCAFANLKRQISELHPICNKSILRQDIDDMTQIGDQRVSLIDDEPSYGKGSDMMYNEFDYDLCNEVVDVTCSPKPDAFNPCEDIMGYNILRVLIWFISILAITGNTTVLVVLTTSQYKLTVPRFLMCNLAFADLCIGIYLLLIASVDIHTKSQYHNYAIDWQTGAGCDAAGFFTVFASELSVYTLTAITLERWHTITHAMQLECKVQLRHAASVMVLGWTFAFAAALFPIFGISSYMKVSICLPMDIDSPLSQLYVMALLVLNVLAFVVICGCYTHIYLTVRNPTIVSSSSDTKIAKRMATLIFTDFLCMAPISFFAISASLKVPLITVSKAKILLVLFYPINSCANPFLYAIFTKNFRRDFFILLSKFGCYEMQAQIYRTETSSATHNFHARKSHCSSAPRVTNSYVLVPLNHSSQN
Procedure: Example 25. Rat granulosa EC50 FSH (Assay B)
The assay was performed pursuant to the teaching of Yanofsky et al. (2006) Allosteric activation of the follicle-stimulating hormone (FSH) receptor by selective, nonpeptide agonists (JBC 281(19): 13226-13233, which is incorporated by reference in the disclosure of the invention).

SMILES | EC50 (FSHR) | EC50 [1]
COc1cc2c(cc1-c1cncc(C#N)c1)-c1c(c(C(=O)N(C)C(C)(C)C)nn1-c1cc(Cl)cc(Cl)c1)CO2 [Compound 8, N-tert-butyl-8-(5-cyanopyridin-3-yl)-1-(3,5-dichlorophenyl)-7-methoxy-N-methyl-1,4-dihydrochromeno[4,3-c]pyrazole-3-carboxamide] | < 10 nM | 101 to 500 nM
COc1cc2c(cc1-c1cnn(CC(O)CO)c1)-c1c(c(C(=O)N(C)C(C)(C)C)nn1-c1cc(Cl)cc(Cl)c1)CO2 (centres unmarked) [Compound 190, N-tert-butyl-1-(3,5-dichlorophenyl)-8-(1-(2,3-dihydroxypropyl)-1H-pyrazol-4-yl)-7-methoxy-N-methyl-1,4-dihydrochromeno[4,3-c]pyrazole-3-carboxamide] | 10 to 100 nM | > 500 nM
COc1cc2c(cc1-c1cncc(C#N)c1)-c1c(c(C(=O)N3CCC(O)CC3(C)C)nn1-c1cc(F)cc(F)c1)CO2 (centres unmarked) [Compound 50, 5-(1-(3,5-difluorophenyl)-3-(4-hydroxy-2,2-dimethylpiperidine-1-carbonyl)-7-methoxy-1,4-dihydrochromeno[4,3-c]pyrazol-8-yl)nicotinonitrile] | < 10 nM | 101 to 500 nM
COc1cc2c(cc1-c1nn(C)cc1Br)-c1c(c(C(=O)N(C)C(C)(C)C)nn1-c1cc(Cl)cc(Cl)c1)CO2 [Compound 148] | < 10 nM | 10 to 100 nM
